# Results: patent US8252768B2, “Designer therapy of pancreatic tumors” (University of Miami, priority 2006, dated 2012)
# Like-named read-outs stand apart in the source and are kept apart here. Marks after values point to notes of the source that are not given here.
# What was measured:
# [1] = target: T1, dCMP deaminase (Mus musculus, UniProt Q8K2D6); test: Inhibition of dCMP deaminase after H4U in mice bearing Lewis lung carcinoma; assay type: in vivo, BD2F1 mice; conditions: for % of inhibition of dCMP deaminase of tumor: 30 min
# T1 construct: deaminase activity of tumor, serum and other tissues assayed 30 min after H4U; from tissue; host or cells: tumor (Lewis lung carcinoma), serum and other tissues of BD2F1 mice
# T1 sequence (Q8K2D6 1-178): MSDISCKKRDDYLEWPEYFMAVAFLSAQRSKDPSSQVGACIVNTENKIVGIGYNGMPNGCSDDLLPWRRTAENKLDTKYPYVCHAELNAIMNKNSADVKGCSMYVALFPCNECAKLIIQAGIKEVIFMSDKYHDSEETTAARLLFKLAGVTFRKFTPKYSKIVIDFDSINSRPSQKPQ
# Procedure: dCMP Deaminase Activity: The crude enzyme extract was prepared as described in A. The reaction was carried out in 60 mM Tris HCl, pH 8.0, and 50 μm dCTP, 2.5 mM MgCl2, 30 mM NaF, and 80% H2O to which dCMP (^3H labeled) was added to a final concentration of 2 mM; 20 μl of enzyme extract was added to initiate the reaction giving a total volume of […]. […] A control lacking enzyme was included with each determination. The reaction was terminated as described above in at 0, 30 and 45 minutes and denatured protein was removed by centrifugation as described above. To 10 μl of the supernatant, 6 μl of a 0.03M solution of the carrier nucleotides, dCMP and dUMP were added so that the reactants can be visualized under a UV lamp. Chromatographic isolation of the products was carried out in 2 different solvent systems: A) Baker DEAE Cellulose TLC sheets in 0.01N HCl for 35 min. […] Each appropriate area of the thin layer sheets (where dCMP and dUMP were separated), were cut into small pieces and placed in separate vials and extracted with 1N HCl (1 ml) for 30 minutes. Scintillation cocktail was added (5 ml) to the vials which were vortexed prior to counting. The specific activity was expressed as nmoles/min/mg protein.
# [2] = target: T2, cytidine deaminase (Mus musculus, UniProt P56389); test: Inhibition of tissue cytidine deaminase in mice bearing mammary adenocarcinoma-755 (FIG. 6); assay type: in vivo, BD2F1 mice; conditions: H4U 25 mg/kg or deoxytetrahydrouridine 100 mg/kg i.p.; 60 min
# T2 construct: from tissue; host or cells: Lewis lung carcinoma, liver, spleen, intestine, bone marrow, kidney, skeletal muscle and serum of BD2F1 mice
# Procedure: (§1) The crude enzyme extract (the supernatant of a 10 minute 14,000×g centrifugation) was then added. When cytidine was used as substrate, assays were conducted with benzacyclouridine to inhibit uridine phosphorylases. […] After 0, 15, and 30 minutes, the reaction was stopped and denatured protein removed as above for dC Kinase. […] Aliquots were then spotted on PE cellulose TLC sheets and the reactants separated with a solvent system composed of isopropanol:HCl:H2O (170:41:39). […] The nucleosides were visualized under U.V. light and the spots cut out and counted. […] Enzyme activity was expressed as nmole formed in 30 min/mg/protein.
# [3] = target: T3, cytidine deaminase (CD) (Homo sapiens, UniProt P32320); test: Competition assay for substrates of cytidine deaminase, crude extracts of PC-3 cells; assay type: biochemical
# T3 construct: Crude extracts of PC-3 cells in culture were prepared as described above; endogenous in cells; host or cells: PC-3 cells (crude extract supernatant)
# Procedure: as §1
# Competition assays to determine Substrate Specificity: Crude extracts of PC-3 cells in culture were prepared as described above. Two concentrations of crude extract were utilized for the studies as determined from the analysis of protein.
# The assays were run for 0, 15, and 30 minutes.
# [4] = test system: PC-3 cells; test: Cytotoxicity (clonogenic) assay, 72 h drug exposure; assay type: cell-based, human
# Procedure: (§2) Toxicity and Radiation Studies: The methods using clonogenic assays described by Perez and Greer (Int. J. Rad. Oncology: Biology, Physics 12, 1523-1527, 1986—incorporated herein by reference in its entirety) were followed.
# Cytotoxicity Assays: 5×10^5 cells were plated in 60 mm tissue culture dishes in 5 mls of the optimal growth media for the particular cell line in an humidified 95% air-5% CO2 atmosphere. The plates were incubated for 18-20 hours to allow for attachment and log-phase growth to begin. At the end of this period the growth medium was aspirated and replaced with […]. Four times (4×) concentrated solutions were prepared and then 1 ml was added to the plates; and growth media were then added to a total volume of […]. The plates were then incubated for 72 hours and the cells harvested by trypsinization. The cells were then serially diluted in growth medium replated into 60 mm dishes and incubated for 6 to 9 days depending on the cell line. After this incubation period, the media was aspirated and the colonies were washed twice with a PBS solution. The colonies were then stained with a 0.2% crystal violet-20% ethanol solution for 5 min. the stain was removed, the colonies were washed and air dried. A viable colony was one consisting of 25 or more normal appearing cells and was considered to have arisen from a single cell. The colonies were counted under a dissecting microscope. Two to three dilutions for every condition were plated. Dishes containing 30-300 colonies were used in the calculation and all conditions were done in duplicate.
# [5] = test system: PC-3 cells; test: Radiosensitization of cells in culture (Cobalt 60, clonogenic survival); assay type: cell-based, human
# Procedure: as §2
# (§3) Irradiation of Cells in Culture: 2×10^5 cells were plated in 25 cm^2 flasks and grown for 18 hr at 37° C. in a humidified 5% CO2 atmosphere. The medium was then removed and replaced with medium containing the appropriate drug concentrations and incubated for 72 hrs then removed and the cell monolayers were rinsed twice with PBS. The flasks were then filled with 50 ml of radiation medium (3 parts RPMI 1640 and 7 parts PBS plus antibiotics and glutamine). The cells were then irradiated using a Cobalt 60 irradiator. The cell monolayers were placed 35 cm away from the source and irradiated for appropriate times according to the dose rate. The dose rate was calculated, at this distance, using ionization chambers. Attenuation factors due to the polystyrene flask (0.9923) and the medium (H2O=0.8715) were considered in calculating the exposure period.
# (§4) After irradiation the cell monolayers were washed again, replenished with growth media, and incubated for 1½ hours. The cell monolayers were then trypsinized and the cells serially diluted, appropriate dilutions were then plated in 60 mm dishes and incubated for 7-9 days at 37° C. and CO2. At the end of this period the cells were stained with crystal violet and the colony forming ability determined by considering 25 or more normal cells as a viable colony. The viabilities were determined and the appropriate survival curves derived. All conditions were done in duplicate using two flasks treated under identical conditions.
# [6] = target: deoxycytidine kinase (dCK) (Homo sapiens, UniProt P27707); test: Competition assay for substrates of deoxycytidine kinase, crude extracts of PC-3 cells
# [7] = test system: Lewis lung carcinoma; test: Mean day of death (T/C), Lewis lung carcinoma in mice; assay type: in vivo, BD2F1 mice
# Procedure: ; The efficacy of the drug, F3methyldC followed the pattern of Selectivity. The mean day of death (Tumor/Control) was 1.3, 1.6, 1.8 and 1.4 for 10, 25, 50 and 75 mg/kg H4U, respectively. […].
# [8] = test system: uridine/cytidine kinase; test: Competition assay for substrates of uridine/cytidine kinase, crude extracts of T24 cells; assay type: biochemical, human
# Procedure: 2 mM dithiothreitol (DTT) and 0.5 mM phenylmethylsulfanyl fluoride were added just before extraction. The tissue sample was homogenized in a Dounce glass homogenizer and then sonicated for 3 five-second pulses in a Branson Sonifier with a micro-tip at 25 KHz to disrupt the cells. During homogenization and sonication the extract was kept cold throughout the procedures. The tissue extract was then centrifuged at 14,000×g at 4° C. for 15 min., and the supernatant (the crude enzyme extract) was removed. The supernatant was sheared 20 times on ice utilizing a 1 cc syringe with a 27 G½ needle to reduce viscosity. […] 2 mM DTT and 340 μM H4U were added just before the assay. Finally, to the reaction mixture, 5 μl 200 mM creatine phosphate and creatine phosphokinase (0.5 unit/μl) was added to 150 μl of the section mixture. […] H2O bath for 1 minute before 20 μl of the crude enzyme extract was added to initiate the reaction. […] At 0, 30 and 60 minutes the reaction mixture, divided in separate tubes, was heated in a boiling water bath for 2 minutes to terminate the reaction. Denatured protein was then removed by centrifugation of the sample for 2 minutes at 14,000×g. The amount of nucleotide formed was determined by spotting 20 μl aliquots of the reaction mixture onto DE-81 2.2 cm Whatman filter discs. After air drying, the unphosphorylated substrate nucleoside was removed by washing twice for 10 min. in 20 mM ammonium formate and twice for 5 min. in deionized H2O with gentle stirring. A control, lacking the crude enzyme extract was included with each determination. The washed papers were dried under a heat lamp and then placed into individual scintillation vials, eluted for 30 min. in 1 ml of 0.1M HCl-0.1M KCL and then vortexed in 5 ml of scintillation fluid and counted. Enzyme activity was expressed as pmoles/min/mg protein.
# When uridine was utilized as substrate, benzacyclouridine was added to prevent the catabolism of the substrate by uridine phosphorylase and tetrahydrouridine was omitted.
# [9] = test system: T24 cells; test: Radiosensitization of cells in culture (Cobalt 60, clonogenic survival); assay type: cell-based, human
# Procedure: as §2, §3, §4
# [10] = competition studies, human tumor cell extracts
# T3 sequence (P32320 whole entry): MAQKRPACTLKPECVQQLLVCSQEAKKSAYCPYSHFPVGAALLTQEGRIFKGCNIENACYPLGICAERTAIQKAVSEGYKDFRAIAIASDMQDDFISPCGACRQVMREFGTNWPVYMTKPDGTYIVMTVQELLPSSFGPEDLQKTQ
# Sequence of deoxycytidine kinase (dCK) (P27707 whole entry): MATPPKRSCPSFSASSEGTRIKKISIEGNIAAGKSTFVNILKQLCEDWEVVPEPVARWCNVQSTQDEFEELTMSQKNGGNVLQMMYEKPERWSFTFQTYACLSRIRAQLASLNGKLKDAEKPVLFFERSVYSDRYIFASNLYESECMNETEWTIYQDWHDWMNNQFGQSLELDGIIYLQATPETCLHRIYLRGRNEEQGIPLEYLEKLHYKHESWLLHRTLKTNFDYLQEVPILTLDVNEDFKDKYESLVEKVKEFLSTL
# T2 sequence (P56389 whole entry): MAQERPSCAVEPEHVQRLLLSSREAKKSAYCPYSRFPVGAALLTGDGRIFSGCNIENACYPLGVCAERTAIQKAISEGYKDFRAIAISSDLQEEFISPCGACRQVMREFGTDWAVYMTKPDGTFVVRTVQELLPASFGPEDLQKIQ
smiles,measurement,setting,value
O=C1NC(O)CCN1[C@H]1C[C@H](O)[C@@H](CO)O1 (stereo partly drawn) [Deoxytetrahydrouridine],selective inhibition of dCMP deaminase of normal tissue (in words),"[1]; mouse, in vivo",not selectively inhibited
same,selectivity of inhibition: tumor CD vs CD of normal tissues (in words),[2],did not display a selective inhibition
"Nc1nc(=O)n([C@H]2C[C@H](O)[C@@H](CO)O2)cc1I [5-IdC, 5-Iodo-2′-deoxycytidine]",substrate for cytidine deaminase (in words),[3]; [10],good substrates
same,inhibition at 250 µM,"[3]; competitor 250 μM, substrate 3H-Deoxycytidine 25 μM, ratio 10, PC-3 extracts",60%
same,effect of tetrahydrouridine (H4U) on cytotoxicity / viability (in words),[4],antagonized by Tetrahydrouridine
same,effect of thymidine on cytotoxicity (in words),[4],antagonized by thymidine
same,effect of tetrahydrouridine (H4U) on cytotoxicity / viability (in words),"[4]; human, 72 h",reversal by H4U
same,% S,"[4]; nucleoside 5 μM, H4U 0 μM",15%
same,% S,"[4]; nucleoside 5 μM, H4U 5 μM",100%
same,% S,"[4]; nucleoside 5 μM, H4U 100 μM",97%
same,% S,"[4]; nucleoside 5 μM, H4U 1500 μM",100%
same,% S,"[4]; nucleoside 10 μM, H4U 5 μM",53%
same,% S,"[4]; nucleoside 10 μM, H4U 100 μM",73%
same,% S,"[4]; nucleoside 10 μM, H4U 1500 μM",89%
same,% S,"[4]; nucleoside 20 μM, H4U 5 μM",30%
same,% S,"[4]; nucleoside 20 μM, H4U 100 μM",65%
same,% S,"[4]; nucleoside 20 μM, H4U 1500 μM",61%
same,effect of thymidine on radiosensitization (in words),[5]; cells in culture,antagonized by thymidine
same,effect of tetrahydrouridine (H4U) on radiosensitization (in words),"[5]; cells in culture, listed as 5-Iododeoxycytidine",reversal by H4U
same,effect of tetrahydrouridine (H4U) on radiosensitization (in words),"[5]; cells in culture, listed as IdC",greater radiosensitization than IdC alone
same,substrate for deoxycytidine kinase (in words),[6]; [10],very poor substrates
same,inhibition at 250 µM,[6]; read-out: % Inhibition (dCK),0%
O=C1NC(O)CCN1[C@@H]1O[C@H](CO)[C@@H](O)[C@H]1O (stereo partly drawn) [Tetrahydrouridine],% S,"[4]; no nucleoside, H4U 100 μM alone",100%
same,% of inhibition of dCMP deaminase of tumor,"[1]; H4U 10 mg/kg, footnote: less than 5% enzyme inhibition",0^d %
same,% of inhibition of dCMP deaminase of tumor,[1]; H4U 25 mg/kg,0%
same,% of inhibition of dCMP deaminase of tumor,[1]; H4U 50 mg/kg,0%
same,% of inhibition of dCMP deaminase of tumor,[1]; H4U 75 mg/kg,0%
same,MDD T/C (mean day of death),[7]; H4U 10 mg/kg with F3methyldC,1.25
same,MDD T/C (mean day of death),"[7]; H4U 25 mg/kg with F3methyldC, mean ± SE",1.63 ± 0.07^e
same,MDD T/C (mean day of death),"[7]; H4U 50 mg/kg with F3methyldC, mean ± SE",1.78 ± 0.06
same,MDD T/C (mean day of death),[7]; H4U 75 mg/kg with F3methyldC,1.44
same,% Inhibitation (U/C kinase),"[8]; competitor 1500 μM, substrate 3H-Cytidine 8.3 μM",1.5%
same,% Inhibitation (U/C kinase),"[8]; competitor 1500 μM, substrate 3H-Uridine 16.7 μM",1.7%
O=c1[nH]c(=O)n([C@@H]2O[C@H](CO)[C@@H](O)[C@H]2O)cc1Cl [5-Chlorouridine],radiosensitization of PC-3 cells (in words),[5]; PC-3 cells,effective radiosensitizer
same,radiosensitization of T24 cells (in words),[9],effective radiosensitizer
same,radiosensitization of T24 cells (in words),[9]; listed as Chlorouridine,compared very favorably with the other established Radiosensitizers
same,substrate for U/C kinase of T24 cells (in words),[8],moderate substrates
same,% Inhibitation (U/C kinase),"[8]; competitor 100 μM, substrate 3H-Cytidine 8.3 μM",8%
same,% Inhibitation (U/C kinase),"[8]; competitor 100 μM, substrate 3H-Uridine 16.7 μM",11%
same,% Inhibitation (U/C kinase),"[8]; competitor 250 μM, substrate 3H-Cytidine 8.3 μM",21%
same,% Inhibitation (U/C kinase),"[8]; competitor 250 μM, substrate 3H-Uridine 16.7 μM",22%
same,% Inhibitation (U/C kinase),"[8]; competitor 500 μM, substrate 3H-Cytidine 8.3 μM",32%
same,% Inhibitation (U/C kinase),"[8]; competitor 500 μM, substrate 3H-Uridine 16.7 μM",24%
same,% Inhibitation (U/C kinase),"[8]; competitor 750 μM, substrate 3H-Cytidine 8.3 μM",39%
same,% Inhibitation (U/C kinase),"[8]; competitor 750 μM, substrate 3H-Uridine 16.7 μM",32%
